Tested on: mouse kidney
Assay: RNA-seq of kidney gene expression over time in FA nephropathy progression (Table 1)
Assay type: in vivo
Description: Identification of Candidate Genes for Biomarkers of Kidney Fibrosis Through RNA-Seq. […] To select genes that are indicative of fibrosis candidates were considered from this later group that had robust upregulation (>5-fold with >100 read counts at peak) over time as fibrosis progresses. Another important criteria was the location of the protein product of the gene, either in extracellular matrix or transmembrane, to increase the chance of detecting it in the urine and use it as a biomarker(11).
(§1) RNA samples (n=3 mice/time point) were sequenced at the Bioplymers Facility at the Harvard Medical School. Libraries were prepared from 10 ng total RNA per sample using the IntegenX Apollo 324 system and NuGEN SPIA reagents. Libraries were multiplexed in groups of three per lane of a flowcell and 50 cycle, paired-end sequencing was performed on an Illumina HiSeq2000 instrument. Illumina sequence quality was surveyed with FastQC (available on the world wide web at bioinformatics.babraham.ac.uk/projects/fastqc/) to ensure suitability of library generation and sequencing for further analysis. Adapters and lower quality bases were trimmed with Cutadapt (available on the world wide web at code.google.com/p/cutadapt/), using a Phred quality cutoff of 20, and reassessed with FastQC. Trimmed reads were aligned to the Ensembl NCBIM37 Mus musculus genome build with TopHat2. Aligned reads were summarized at the gene level against the Illumina iGenomes (available on the world wide web at tophat.cbcb.umd.edu/igenomes.html) NCBIM37 Mus musculus gene annotations using HTSeq (available on the world wide web at huber.embl.de/users/anders/HTSeq/doc/overview.html). […] The full dataset is available in the NCBI GEO database with the accession number GSE65267. Raw data is accessible on the world wide web at ncbi.nlm.nih.gov/geo/query/acc.cgi?acc=GSE65267.
Mice were sacrificed at 1, 2, 3, 7 and 14 days following administration. […] All mice were sacrificed at 14 days.
as §1, with “The quantity and quality of mRNA” for “RNA samples (n=3 mice/time point)”, “assayed on an Agilent 2200 TapeStation instrument and by SYBR qPCR assay.” for “sequenced at the Bioplymers Facility at the Harvard Medical School.”, “(https://code.google.com/p/cutadapt/),” for “(available on the world wide web at code.google.com/p/cutadapt/),”

Nc1nc2ncc(CNc3ccc(C(=O)N[C@@H](CCC(=O)O)C(=O)O)cc3)nc2c(=O)[nH]1 [FA, folic acid]
7SK RNA mean fold change from normal (Day 1): 0.04 fold | 2310042D19Rik mean fold change from normal (Day 1): 0.09 fold | 4930533I22Rik mean fold change from normal (Day 1): 0.11 fold | 4933417A18Rik mean fold change from normal (Day 1): 0.04 fold | 8430408G22Rik mean fold change from normal (Day 1): 0.09 fold | 9030619P08Rik mean fold change from normal (Day 1): 0.01 fold | Slc2a5 mean fold change from normal (Day 1): 0.07 fold | Slc4a1 mean fold change from normal (Day 1): 0.11 fold | Slc5a4a mean fold change from normal (Day 1): 0.02 fold | Slc5a12 mean fold change from normal (Day 1): 0.06 fold | Slc6a12 mean fold change from normal (Day 1): 0.02 fold | Slc7a13 mean fold change from normal (Day 1): 0.02 fold | Slc28a1 mean fold change from normal (Day 1): 0.02 fold | Slc34a1 mean fold change from normal (Day 1): 0.05 fold | Slc34a2 mean fold change from normal (Day 1): 11.81 fold | Slc34a3 mean fold change from normal (Day 1): 0.05 fold | Slc46a3 mean fold change from normal (Day 1): 0.11 fold | Slco1a1 mean fold change from normal (Day 1): 0.18 fold | Smoc2 mean fold change from normal (Day 1): 0.06 fold | Smpdl3b mean fold change from normal (Day 1): 222.02 fold | Snx31 mean fold change from normal (Day 1): 0.06 fold | Socs1 mean fold change from normal (Day 1): 77.54 fold | Sox4 mean fold change from normal (Day 1): 12.86 fold | Sox9 mean fold change from normal (Day 1): 24.10 fold | Spaca7 mean fold change from normal (Day 1): 27.30 fold | Spink6 mean fold change from normal (Day 1): 46.74 fold | Spp1 mean fold change from normal (Day 1): 113.22 fold | Spred3 mean fold change from normal (Day 1): 6.01 fold | Spsb1 mean fold change from normal (Day 1): 11.68 fold | Spt1c3 mean fold change from normal (Day 1): 0.07 fold | St8sia2 mean fold change from normal (Day 1): 3.07 fold | Stil mean fold change from normal (Day 1): 13.84 fold | Stk32a mean fold change from normal (Day 1): 10.38 fold | Stra6 mean fold change from normal (Day 1): 1.19 fold | Susd2 mean fold change from normal (Day 1): 0.18 fold | Sycn mean fold change from normal (Day 1): 0.07 fold | Synpr mean fold change from normal (Day 1): 0.23 fold | Sytl2 mean fold change from normal (Day 1): 3.75 fold | Tagln2 mean fold change from normal (Day 1): 8.92 fold | Tbx10 mean fold change from normal (Day 1): 0.06 fold | Timd2 mean fold change from normal (Day 1): 7.27 fold | Timp1 mean fold change from normal (Day 1): 175.24 fold | Tlr2 mean fold change from normal (Day 1): 6.43 fold | Tmem25 mean fold change from normal (Day 1): 0.11 fold | Tmem26 mean fold change from normal (Day 1): 0.10 fold | Tmem207 mean fold change from normal (Day 1): 0.01 fold | Tmsb10 mean fold change from normal (Day 1): 19.04 fold | Tnc mean fold change from normal (Day 1): 13.27 fold | Tnfaip3 mean fold change from normal (Day 1): 1.97 fold | Tnfrsf23 mean fold change from normal (Day 1): 18.16 fold | Top2a mean fold change from normal (Day 1): 5.38 fold | Tpx2 mean fold change from normal (Day 1): 3.87 fold | Tril mean fold change from normal (Day 1): 0.07 fold | Tsc22d1 mean fold change from normal (Day 1): 8.11 fold | Ttc36 mean fold change from normal (Day 1): 0.04 fold | Ttr mean fold change from normal (Day 1): 0.05 fold | Tyrobp mean fold change from normal (Day 1): 1.26 fold | Ugt3a1 mean fold change from normal (Day 1): 0.18 fold | Uhrf1 mean fold change from normal (Day 1): 16.90 fold | Upp2 mean fold change from normal (Day 1): 0.25 fold | Vcam1 mean fold change from normal (Day 1): 13.66 fold | Vill mean fold change from normal (Day 1): 0.09 fold | Vmn1r18 mean fold change from normal (Day 1): 0.02 fold | Vmn1r19 mean fold change from normal (Day 1): 0.03 fold | Vmn1r20 mean fold change from normal (Day 1): 0.02 fold | Vmn1r-ps11 mean fold change from normal (Day 1): 0.02 fold | Vstm2a mean fold change from normal (Day 1): 0.04 fold | Vtcn1 mean fold change from normal (Day 1): 64.93 fold | Vwce mean fold change from normal (Day 1): 0.06 fold | Wfdc15b mean fold change from normal (Day 1): 0.02 fold | Ybx2 mean fold change from normal (Day 1): 0.08 fold | 7SK RNA mean fold change from normal (Day 2): 0.04 fold | 2310042D19Rik mean fold change from normal (Day 2): 0.08 fold | 4930533I22Rik mean fold change from normal (Day 2): 0.09 fold | 4933417A18Rik mean fold change from normal (Day 2): 0.07 fold | 8430408G22Rik mean fold change from normal (Day 2): 0.23 fold | 9030619P08Rik mean fold change from normal (Day 2): 0.05 fold | Slc2a5 mean fold change from normal (Day 2): 0.09 fold | Slc4a1 mean fold change from normal (Day 2): 0.09 fold | Slc5a4a mean fold change from normal (Day 2): 0.37 fold | Slc5a12 mean fold change from normal (Day 2): 0.34 fold | Slc6a12 mean fold change from normal (Day 2): 0.13 fold | Slc7a13 mean fold change from normal (Day 2): 0.02 fold | Slc28a1 mean fold change from normal (Day 2): 0.19 fold | Slc34a1 mean fold change from normal (Day 2): 0.11 fold | Slc34a2 mean fold change from normal (Day 2): 16.20 fold | Slc34a3 mean fold change from normal (Day 2): 0.05 fold | Slc46a3 mean fold change from normal (Day 2): 0.36 fold

From patent publication US10119168B2, “Methods for the treatment of kidney fibrosis” (priority 2014, dated 2018)
